From EPA's ToxValDB 9.5 (doi:10.2903/j.efsa.2009.189r)

Tests used:
Rattus norvegicus = conditions: for LD50: acute, oral, mortality; for NOEL: chronic
Pimephales promelas = conditions: chronic/long-term; duration: 359 days; mortality
Folsomia candida = conditions: chronic/long-term
Colinus virginianus = conditions: for NOEC: reproduction developmental
Apis mellifera = conditions: acute; duration: 48 hours; oral; unspecified; mortality
Canidae = conditions: chronic; duration: 1 years; oral; Dog Other; organ weight
Tagia sp. = conditions: acute; duration: 14 days; mortality
Anas platyrhynchos = conditions: acute; oral; unspecified; mortality
Lepomis macrochirus = conditions: acute; duration: 96 hours; mortality
Mus musculus = conditions: acute; oral; mortality
Chrysoperla externa = experiment: LR50; higher = less toxic; conditions: not reported; mortality

SMILES	LD50 (Rattus norvegicus) [mg/kg-day]	NOEC (Pimephales promelas) [mg/L]	NOEC (Folsomia candida) [mg/kg]	LC50 (Colinus virginianus; acute, oral, diet, mortality) [mg/kg-day]	LD50 (Colinus virginianus; acute, oral, mortality) [mg/kg]	NOEC (Colinus virginianus) [mg/kg-day]	NOEC (Colinus virginianus; duration: 90 days) [mg/kg-day]	NOEL (Rattus norvegicus; F) [mg/kg-day]	NOEL (Rattus norvegicus; M) [mg/kg-day]	LD50 (Apis mellifera) [µg/piece]	NOAEL (Canidae) [mg/kg-day]	LC50 (Tagia sp.) [mg/kg]	LD50 (Anas platyrhynchos) [mg/kg]	LC50 (Lepomis macrochirus) [µg/mL]	LD50 (Mus musculus) [mg/kg-day]	LR50 (Chrysoperla externa) [g/ha]
NC(=O)c1c(F)cccc1F [Benzamide, 2,6-difluoro-]	2060															
O=C(NC(=O)c1c(F)cccc1F)Nc1cc(Cl)c(OC(F)(F)C(F)C(F)(F)F)cc1Cl (configuration not stated) [Lufenuron]	> 2000	0.02	0.2	966	2000	19.7	20000	10.9	8.3	> 197	1.5	> 1000	2000	> 29	> 2000	0.4
